Measured values from publication PMC4774911, “Biochemical Screening of Five Protein Kinases from Plasmodium falciparum against 14,000 Cell-Active Compounds” (PLoS ONE, 2016).
Where “and” joins values, the source holds several entries; their conditions need not be identical. Equal values may be shown once.

Assays:
Assay in all cases: biochemical
ACVR1 = target: T1, ACVR1 (Homo sapiens, UniProt Q04771)
T1 sequence (Q04771 1-509): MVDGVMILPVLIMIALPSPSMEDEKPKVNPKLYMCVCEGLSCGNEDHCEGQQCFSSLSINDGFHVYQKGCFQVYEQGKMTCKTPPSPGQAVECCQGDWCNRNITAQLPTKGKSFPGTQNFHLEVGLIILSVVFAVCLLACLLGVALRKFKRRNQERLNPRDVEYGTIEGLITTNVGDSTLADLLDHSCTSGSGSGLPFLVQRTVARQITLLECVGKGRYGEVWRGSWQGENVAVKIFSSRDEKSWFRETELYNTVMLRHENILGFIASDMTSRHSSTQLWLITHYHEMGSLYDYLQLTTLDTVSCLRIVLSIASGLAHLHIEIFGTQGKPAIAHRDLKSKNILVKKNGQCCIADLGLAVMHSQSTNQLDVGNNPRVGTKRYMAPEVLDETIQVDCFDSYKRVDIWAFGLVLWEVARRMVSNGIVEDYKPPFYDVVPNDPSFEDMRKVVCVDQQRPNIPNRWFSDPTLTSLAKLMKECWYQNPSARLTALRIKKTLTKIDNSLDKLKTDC

BTK = BTK (Homo sapiens, UniProt Q06187)
CSNK1E = CSNK1E (Homo sapiens, UniProt P49674)
IRAK4 = target: T2, IRAK4 (Homo sapiens, UniProt Q9NWZ3)
T2 sequence (Q9NWZ3 1-460): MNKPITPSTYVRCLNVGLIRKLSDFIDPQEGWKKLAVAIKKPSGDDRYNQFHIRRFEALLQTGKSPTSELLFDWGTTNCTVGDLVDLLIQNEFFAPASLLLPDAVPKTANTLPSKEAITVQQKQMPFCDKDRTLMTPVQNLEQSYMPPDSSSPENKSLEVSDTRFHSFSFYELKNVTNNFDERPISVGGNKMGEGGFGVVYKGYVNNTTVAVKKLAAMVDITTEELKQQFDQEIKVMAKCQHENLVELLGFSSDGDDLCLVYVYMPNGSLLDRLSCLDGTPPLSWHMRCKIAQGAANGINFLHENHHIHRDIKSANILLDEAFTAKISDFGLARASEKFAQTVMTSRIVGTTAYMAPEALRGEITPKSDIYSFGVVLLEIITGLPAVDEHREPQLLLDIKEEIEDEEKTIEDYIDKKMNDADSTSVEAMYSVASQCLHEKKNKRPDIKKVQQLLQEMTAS

MYLK3 = target: T3, MYLK3 (Homo sapiens, UniProt Q32MK0)
T3 sequence (Q32MK0 1-819): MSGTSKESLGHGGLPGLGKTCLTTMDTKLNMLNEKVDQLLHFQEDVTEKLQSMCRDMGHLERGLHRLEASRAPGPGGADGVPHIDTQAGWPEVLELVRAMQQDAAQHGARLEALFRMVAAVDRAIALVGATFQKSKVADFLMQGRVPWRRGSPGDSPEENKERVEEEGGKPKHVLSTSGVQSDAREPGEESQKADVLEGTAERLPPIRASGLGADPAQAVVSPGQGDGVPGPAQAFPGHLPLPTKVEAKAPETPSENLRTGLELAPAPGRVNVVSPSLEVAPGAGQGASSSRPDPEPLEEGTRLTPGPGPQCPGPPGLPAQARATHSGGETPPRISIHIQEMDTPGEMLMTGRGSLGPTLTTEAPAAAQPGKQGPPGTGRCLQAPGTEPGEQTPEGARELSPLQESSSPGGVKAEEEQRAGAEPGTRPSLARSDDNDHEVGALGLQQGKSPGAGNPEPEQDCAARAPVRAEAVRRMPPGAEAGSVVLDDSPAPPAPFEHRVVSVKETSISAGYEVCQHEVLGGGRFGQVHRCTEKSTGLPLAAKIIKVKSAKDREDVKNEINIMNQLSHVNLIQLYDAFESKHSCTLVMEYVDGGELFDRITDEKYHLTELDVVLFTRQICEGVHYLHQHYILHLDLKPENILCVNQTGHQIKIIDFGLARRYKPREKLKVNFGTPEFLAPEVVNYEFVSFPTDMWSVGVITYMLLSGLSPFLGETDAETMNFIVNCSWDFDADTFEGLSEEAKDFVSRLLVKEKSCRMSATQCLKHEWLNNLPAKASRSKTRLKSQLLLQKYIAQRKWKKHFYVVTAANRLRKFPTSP

PIM2 = PIM2 (Homo sapiens, UniProt Q9P1W9)
PTK2B = PTK2B (Homo sapiens, UniProt Q14289)
RIPK2 = RIPK2 (Homo sapiens, UniProt O43353)
SLK = SLK (Homo sapiens, UniProt Q9H2G2)
SRC = SRC (Homo sapiens, UniProt P12931)
TBK1 = target: T4, TBK1 (Homo sapiens, UniProt Q9UHD2)
T4 sequence (Q9UHD2 1-729): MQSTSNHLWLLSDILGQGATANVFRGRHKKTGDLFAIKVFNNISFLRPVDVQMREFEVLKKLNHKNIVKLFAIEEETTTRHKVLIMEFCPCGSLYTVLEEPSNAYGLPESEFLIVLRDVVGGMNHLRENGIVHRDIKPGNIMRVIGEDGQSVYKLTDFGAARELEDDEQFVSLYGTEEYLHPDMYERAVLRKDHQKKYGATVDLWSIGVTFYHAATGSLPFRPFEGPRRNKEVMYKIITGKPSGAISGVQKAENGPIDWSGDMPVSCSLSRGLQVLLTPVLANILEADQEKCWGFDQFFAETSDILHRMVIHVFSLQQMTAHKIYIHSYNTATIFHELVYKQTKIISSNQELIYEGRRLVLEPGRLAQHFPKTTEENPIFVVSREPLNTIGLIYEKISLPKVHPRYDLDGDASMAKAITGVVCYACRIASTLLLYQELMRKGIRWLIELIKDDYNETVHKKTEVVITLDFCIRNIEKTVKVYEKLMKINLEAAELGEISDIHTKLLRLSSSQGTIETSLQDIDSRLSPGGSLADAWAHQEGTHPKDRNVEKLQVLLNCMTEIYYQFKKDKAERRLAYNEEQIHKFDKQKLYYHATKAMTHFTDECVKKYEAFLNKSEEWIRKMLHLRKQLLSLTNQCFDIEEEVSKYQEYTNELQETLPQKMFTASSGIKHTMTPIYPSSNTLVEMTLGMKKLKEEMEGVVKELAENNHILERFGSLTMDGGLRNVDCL

Sequence of PTK2B (Q14289 whole entry): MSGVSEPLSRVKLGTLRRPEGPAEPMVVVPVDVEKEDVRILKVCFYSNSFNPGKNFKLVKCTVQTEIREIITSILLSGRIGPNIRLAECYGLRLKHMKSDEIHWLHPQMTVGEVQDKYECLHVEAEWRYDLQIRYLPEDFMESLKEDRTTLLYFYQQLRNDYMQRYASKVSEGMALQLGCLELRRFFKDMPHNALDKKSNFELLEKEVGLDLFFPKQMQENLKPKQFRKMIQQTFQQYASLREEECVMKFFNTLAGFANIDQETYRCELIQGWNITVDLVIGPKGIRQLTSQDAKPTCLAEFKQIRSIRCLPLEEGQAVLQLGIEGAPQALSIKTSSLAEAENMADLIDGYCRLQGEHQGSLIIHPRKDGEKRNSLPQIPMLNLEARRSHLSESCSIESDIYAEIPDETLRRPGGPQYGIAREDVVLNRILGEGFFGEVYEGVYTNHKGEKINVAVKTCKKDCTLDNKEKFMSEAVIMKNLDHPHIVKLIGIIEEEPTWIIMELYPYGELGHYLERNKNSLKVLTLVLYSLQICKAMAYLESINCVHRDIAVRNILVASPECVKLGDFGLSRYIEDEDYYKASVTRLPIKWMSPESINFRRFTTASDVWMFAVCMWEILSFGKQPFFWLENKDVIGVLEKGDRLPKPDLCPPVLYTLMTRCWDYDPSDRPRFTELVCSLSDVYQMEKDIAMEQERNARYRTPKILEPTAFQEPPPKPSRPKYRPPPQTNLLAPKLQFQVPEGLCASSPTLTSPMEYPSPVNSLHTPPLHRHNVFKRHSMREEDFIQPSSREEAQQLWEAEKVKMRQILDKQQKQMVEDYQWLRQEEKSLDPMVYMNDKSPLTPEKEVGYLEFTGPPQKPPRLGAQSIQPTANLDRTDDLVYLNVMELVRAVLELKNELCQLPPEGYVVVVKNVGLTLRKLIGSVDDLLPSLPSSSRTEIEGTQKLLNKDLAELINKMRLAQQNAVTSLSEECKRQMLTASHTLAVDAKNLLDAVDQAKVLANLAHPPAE
Sequence of RIPK2 (O43353 whole entry): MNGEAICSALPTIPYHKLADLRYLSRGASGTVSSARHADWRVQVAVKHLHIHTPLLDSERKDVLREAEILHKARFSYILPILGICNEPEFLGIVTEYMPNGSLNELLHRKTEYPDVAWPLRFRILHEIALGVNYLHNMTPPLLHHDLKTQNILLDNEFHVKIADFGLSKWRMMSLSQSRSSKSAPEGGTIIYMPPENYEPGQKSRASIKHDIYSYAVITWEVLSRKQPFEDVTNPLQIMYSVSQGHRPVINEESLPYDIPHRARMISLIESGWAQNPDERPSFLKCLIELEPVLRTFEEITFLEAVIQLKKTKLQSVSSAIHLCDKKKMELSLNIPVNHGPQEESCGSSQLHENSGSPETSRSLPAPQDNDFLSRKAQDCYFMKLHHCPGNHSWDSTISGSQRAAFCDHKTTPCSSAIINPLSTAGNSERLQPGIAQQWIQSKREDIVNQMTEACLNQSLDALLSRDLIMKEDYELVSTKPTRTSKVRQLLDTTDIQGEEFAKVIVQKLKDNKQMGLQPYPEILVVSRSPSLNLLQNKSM
Sequence of SRC (P12931 whole entry): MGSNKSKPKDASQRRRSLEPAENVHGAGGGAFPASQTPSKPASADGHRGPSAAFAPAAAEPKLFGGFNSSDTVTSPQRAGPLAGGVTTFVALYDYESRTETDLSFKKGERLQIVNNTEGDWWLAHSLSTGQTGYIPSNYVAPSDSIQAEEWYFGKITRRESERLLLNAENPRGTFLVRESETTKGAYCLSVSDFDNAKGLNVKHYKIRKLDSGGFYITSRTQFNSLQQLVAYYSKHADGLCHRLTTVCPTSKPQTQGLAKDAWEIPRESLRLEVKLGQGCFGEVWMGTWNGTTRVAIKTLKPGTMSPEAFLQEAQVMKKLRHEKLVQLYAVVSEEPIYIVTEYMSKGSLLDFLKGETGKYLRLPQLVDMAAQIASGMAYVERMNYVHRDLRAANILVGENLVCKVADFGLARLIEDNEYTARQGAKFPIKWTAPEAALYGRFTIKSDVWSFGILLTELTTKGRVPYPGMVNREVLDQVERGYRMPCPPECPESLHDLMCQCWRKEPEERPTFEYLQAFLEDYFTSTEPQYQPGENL
Sequence of BTK (Q06187 whole entry): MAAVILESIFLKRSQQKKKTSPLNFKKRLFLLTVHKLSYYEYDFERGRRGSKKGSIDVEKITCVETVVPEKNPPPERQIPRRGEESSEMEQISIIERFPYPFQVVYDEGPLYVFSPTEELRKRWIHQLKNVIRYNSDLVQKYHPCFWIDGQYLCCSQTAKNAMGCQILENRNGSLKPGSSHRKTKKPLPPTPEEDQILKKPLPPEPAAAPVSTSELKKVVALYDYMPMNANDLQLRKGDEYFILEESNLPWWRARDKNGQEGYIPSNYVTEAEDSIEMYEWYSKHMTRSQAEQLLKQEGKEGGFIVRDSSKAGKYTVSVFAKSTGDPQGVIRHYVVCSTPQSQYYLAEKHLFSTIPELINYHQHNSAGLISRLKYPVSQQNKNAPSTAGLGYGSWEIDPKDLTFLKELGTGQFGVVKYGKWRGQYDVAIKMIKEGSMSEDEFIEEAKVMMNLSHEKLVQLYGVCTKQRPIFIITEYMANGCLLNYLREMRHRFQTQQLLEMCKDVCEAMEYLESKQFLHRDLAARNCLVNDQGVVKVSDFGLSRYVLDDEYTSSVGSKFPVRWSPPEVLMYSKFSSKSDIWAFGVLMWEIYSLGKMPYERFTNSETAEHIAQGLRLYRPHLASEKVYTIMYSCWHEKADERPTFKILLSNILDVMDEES
Sequence of SLK (Q9H2G2 whole entry): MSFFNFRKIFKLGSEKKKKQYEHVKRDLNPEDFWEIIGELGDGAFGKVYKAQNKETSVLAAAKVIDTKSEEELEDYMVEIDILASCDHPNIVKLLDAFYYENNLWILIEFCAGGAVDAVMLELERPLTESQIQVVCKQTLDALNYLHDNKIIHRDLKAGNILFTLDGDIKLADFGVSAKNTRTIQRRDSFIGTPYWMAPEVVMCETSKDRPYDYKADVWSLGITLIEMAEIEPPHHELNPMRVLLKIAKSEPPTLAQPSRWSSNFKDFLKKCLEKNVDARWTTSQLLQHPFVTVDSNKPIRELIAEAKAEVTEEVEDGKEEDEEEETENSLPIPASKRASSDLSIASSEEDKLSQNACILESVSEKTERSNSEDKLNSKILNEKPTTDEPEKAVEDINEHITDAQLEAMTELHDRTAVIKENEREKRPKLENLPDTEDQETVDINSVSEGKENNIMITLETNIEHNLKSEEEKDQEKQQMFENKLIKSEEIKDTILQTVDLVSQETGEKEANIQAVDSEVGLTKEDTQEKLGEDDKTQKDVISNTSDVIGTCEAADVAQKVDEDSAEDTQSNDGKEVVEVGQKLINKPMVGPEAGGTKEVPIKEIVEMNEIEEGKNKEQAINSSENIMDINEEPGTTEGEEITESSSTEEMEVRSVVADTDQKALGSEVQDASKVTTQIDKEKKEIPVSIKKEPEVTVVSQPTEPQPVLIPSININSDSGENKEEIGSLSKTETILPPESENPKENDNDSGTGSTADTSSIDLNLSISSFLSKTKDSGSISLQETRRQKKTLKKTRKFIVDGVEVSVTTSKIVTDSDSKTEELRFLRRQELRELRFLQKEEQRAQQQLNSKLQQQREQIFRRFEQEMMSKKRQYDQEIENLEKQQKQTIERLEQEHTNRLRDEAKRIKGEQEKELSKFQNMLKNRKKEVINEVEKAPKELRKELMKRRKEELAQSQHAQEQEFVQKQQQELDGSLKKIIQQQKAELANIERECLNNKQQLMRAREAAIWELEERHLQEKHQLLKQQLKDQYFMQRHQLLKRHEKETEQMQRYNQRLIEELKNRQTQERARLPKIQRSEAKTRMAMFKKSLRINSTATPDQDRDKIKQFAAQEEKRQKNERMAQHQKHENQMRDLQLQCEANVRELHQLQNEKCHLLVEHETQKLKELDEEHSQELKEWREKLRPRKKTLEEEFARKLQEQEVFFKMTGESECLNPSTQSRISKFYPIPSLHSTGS
Sequence of CSNK1E (P49674 whole entry): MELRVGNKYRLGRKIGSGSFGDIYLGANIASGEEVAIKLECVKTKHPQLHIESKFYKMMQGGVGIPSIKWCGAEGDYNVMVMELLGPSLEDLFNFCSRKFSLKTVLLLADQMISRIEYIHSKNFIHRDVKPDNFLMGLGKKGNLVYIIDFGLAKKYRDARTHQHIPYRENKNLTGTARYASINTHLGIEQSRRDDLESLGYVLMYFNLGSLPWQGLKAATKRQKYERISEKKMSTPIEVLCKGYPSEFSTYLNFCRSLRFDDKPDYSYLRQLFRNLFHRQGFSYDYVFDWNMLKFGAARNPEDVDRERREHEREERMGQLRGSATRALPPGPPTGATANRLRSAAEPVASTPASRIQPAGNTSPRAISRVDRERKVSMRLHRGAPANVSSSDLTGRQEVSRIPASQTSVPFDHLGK
Sequence of PIM2 (Q9P1W9 whole entry): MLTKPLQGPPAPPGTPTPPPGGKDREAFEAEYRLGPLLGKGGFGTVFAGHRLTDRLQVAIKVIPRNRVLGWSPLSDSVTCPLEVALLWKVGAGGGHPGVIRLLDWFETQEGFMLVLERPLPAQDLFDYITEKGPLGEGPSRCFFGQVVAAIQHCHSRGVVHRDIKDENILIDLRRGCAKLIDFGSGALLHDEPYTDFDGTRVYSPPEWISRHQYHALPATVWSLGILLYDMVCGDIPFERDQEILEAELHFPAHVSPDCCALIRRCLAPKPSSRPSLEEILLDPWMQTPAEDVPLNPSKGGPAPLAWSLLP

SMILES	IC50 (ACVR1) [µM]	IC50 (BTK)	IC50 (CSNK1E)	IC50 (IRAK4) [µM]	IC50 (MYLK3)	IC50 (PIM2) [µM]	IC50 (PTK2B)	IC50 (RIPK2)	IC50 (SLK)	IC50 (SRC)	IC50 (TBK1)
CN1CCN(c2ccc(Nc3ncc(C#N)c(Nc4ccccc4C(N)=O)n3)cc2)CC1.Cl [TCMDC-134116]	8.2	600 nM and 670 nM	1600 nM and 4100 nM	0.17	67 nM and 93 nM	4.8	77 nM and 97 nM	810 nM	48 nM and 57 nM	480 nM and 410 nM	530 nM and 510 nM
Cl.NCC1(c2nc(-c3ccc(Cl)c(O)c3)c(-c3ccncc3)[nH]2)CCCCC1 [TCMDC-141154]	> 20	> 20000 nM	330 nM	> 20	> 20000 nM	> 20	> 20000 nM	43 nM and 52 nM	≤ 32 nM	290 nM	> 20000 nM
CN(C)CC(O)COc1ccc(Nc2ncc([N+](=O)[O-])c(Nc3ccccc3O)n2)cc1.O=C(O)C(F)(F)F (stereo not drawn) [TCMDC-141399]	> 20	> 20000 nM	> 20000 nM	> 20	2100 nM and 1800 nM	> 20	350 nM and 480 nM	> 20000 nM	890 nM and 1000 nM	> 20000 nM	> 20000 nM
